From patent publication US6967196B1, “Sulfonamide compounds and uses thereof” (Bristol-Myers Squibb Company, priority 1999, dated 2005)
Counter-ions that a name gives are not always drawn.

These compounds were tested on amyloid β production in transfected H4 (human neuroglioma) cells stably expressing APP constructs (assay: In vitro cell-based assay of inhibitors of amyloid β production (ELISA)). Settings: Homo sapiens, 16 h, transfected H4 cells expressing APP, approximately 16 hours incubation, amyloid β in medium by ELISA; read-out: ACTIVITY (IC50, inhibition of amyloid β production).
Procedure, shortened: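 Aβ secreted into the medium was read by sandwich ELISA (monoclonal capture for the Aβ C-terminus, polyclonal detection for the N-terminus) and calibrated on a standard curve. Before this, APP-expressing H4 cells were exposed to compound for ~16 h at an initial 10-100 μM, with actives then retested in dose-response.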

Row | IC50 | Compound
1 | > 500 nM | C[C@H](C(=O)NCCc1ccc(O)cc1)N(c1cc(Cl)ccc1F)S(=O)(=O)c1ccc(Cl)cc1 [Example 1331]
2 | > 500 nM | C[C@H](C(=O)NCc1ccc2c(c1)OCO2)N(c1cc(Cl)ccc1F)S(=O)(=O)c1ccc(Cl)cc1 [Example 1319]
3 | 100 to 500 nM | CC1CCC(NC(=O)[C@@H](C)N(c2cc(Cl)ccc2F)S(=O)(=O)c2ccc(Cl)cc2)CC1 (some centres unmarked) [Example 1342]
4 | > 500 nM | C[C@H](C(=O)NC1Cc2ccccc2C1)N(c1cc(Cl)ccc1F)S(=O)(=O)c1ccc(Cl)cc1 [Example 1310]

Same assay, conditions: Homo sapiens, 16 h, transfected H4 cells stably expressing APP constructs; approximately 16 hours incubation; amyloid β in medium by ELISA; read-out: ACTIVITY (IC50, inhibition of amyloid β production)

Row | IC50 | Compound
5 | 100 to 500 nM | C[C@H](CCCNC(=O)OC(C)(C)C)N(c1cc(Cl)ccc1Cl)S(=O)(=O)c1ccc(Cl)cc1 [Example 1145, 4-chloro-N-(2,5-dichlorophenyl)-N-[4-[[(1,1-dimethylethoxy)carbonyl]amino]-1-methylbutyl]benzenesulfonamide]
6 | > 10000 nM | O=S(=O)(c1ccc(Cl)cc1)N(Cc1ccccc1OCc1ccccn1)c1ccccc1 [Example 1092, 4-chloro-N-phenyl-N-[2-(2-pyridinylmethoxy)benzyl]benzenesulfonamide hydrochloride]
7 | > 10000 nM | O=S(=O)(c1ccc(Cl)cc1)N(Cc1ccccc1OCc1cccnc1)c1ccccc1 [Example 1091, 4-chloro-N-phenyl-N-[2-(3-pyridinylmethoxy)benzyl]benzenesulfonamide hydrochloride]

Same assay, conditions: Homo sapiens, 16 h, transfected H4 cells stably expressing APP; approx. 16 h incubation; amyloid β in medium by ELISA; read-out: ACTIVITY (IC50, inhibition of amyloid β production)

Row | IC50 | Compound
8 | 100 to 500 nM | CC(C)NC(=O)N(C)CCCOc1ccccc1CN(c1cc(F)ccc1F)S(=O)(=O)c1ccc(Cl)cc1 [Example 734, 4-chloro-N-(2,5-difluorophenyl)-N-(2-{3-[[(isopropylamino)carbonyl](methyl)amino]propoxy}benzyl)benzenesulfonamide]

Same assay, conditions: Homo sapiens, 16 h, transfected H4 cells stably expressing APP; approximately 16 hours incubation; amyloid β in medium by ELISA; read-out: ACTIVITY (IC50, inhibition of amyloid β production)

Row | IC50 | Compound
9 | > 500 nM | C[C@H](c1ccc(F)cc1CCCC1=NCCCN1)N(c1cc(F)ccc1F)S(=O)(=O)c1ccc(Cl)cc1 [Example 1008, 4-chloro-N-(2,5-difluorophenyl)-N-((1R)-1-{4-fluoro-2-[3-(1,4,5,6-tetrahydro-2-pyrimidinyl)propyl]phenyl}ethyl)benzenesulfonamide hydrochloride]
10 | > 500 nM | COc1ccc(SCCCOc2ccccc2CN(c2cc(F)ccc2F)S(=O)(=O)c2ccc(Cl)cc2)cc1 [Example 1029, 4-chloro-N-(2,5-difluorophenyl)-N-(2-{3-[(4-methoxyphenyl)sulfanyl]propoxy}benzyl)benzenesulfonamide]
11 | > 500 nM | O=S(=O)(c1ccc(Cl)cc1)N(Cc1ccccc1OCCCN1CCCCC1)c1cc(Cl)ccc1O [Example 887, 4-chloro-N-(5-chloro-2-hydroxyphenyl)-N-{2-[3-(1-piperidinyl)propoxy]benzyl}benzenesulfonamide hydrochloride]
12 | > 500 nM | O=C(CCc1ccccc1CN(c1ccccc1)S(=O)(=O)c1ccccc1)N1CCCCC1 [Example 1041, N-{2-[3-oxo-3-(1-piperidinyl)propyl]benzyl}-N-phenylbenzenesulfonamide]
13 | > 500 nM | O=S(=O)(c1ccc(Cl)cc1)N(Cc1ccccc1OCCCN1CCCCC1)c1cc(Cl)cnc1Cl [Example 906, 4-chloro-N-(2,5-dichloro-3-pyridinyl)-N-{2-[3-(1-piperidinyl)propoxy]benzyl}benzenesulfonamide hydrochloride]
14 | > 500 nM | C[C@H](c1ccccc1OCCCBr)N(c1cc(F)ccc1F)S(=O)(=O)c1ccc(Cl)cc1 [Example 1045, N-{(1R)-1-[2-(3-bromopropoxy)phenyl]ethyl}-4-chloro-N-(2,5-difluorophenyl)benzenesulfonamide]

Row | Compound | IC50
15 | CSc1ccccc1N(Cc1ccccc1OCCCN1CCCCC1)S(=O)(=O)c1ccc(Cl)cc1 [Example 924, 4-chloro-N-[2-(methylsulfanyl)phenyl]-N-{2-[3-(1-piperidinyl)propoxy]benzyl}benzenesulfonamide hydrochloride] | > 500 nM

Same assay, conditions: transfected H4 cells stably expressing APP constructs; approximately 16 hours incubation; amyloid β in medium by ELISA; read-out: ACTIVITY (IC50, inhibition of amyloid β production)

Row | Compound | IC50
16 | COC(=O)[C@H](CC(C)C)NC(=O)CCC[C@@H](C)N(c1cc(Cl)ccc1F)S(=O)(=O)c1ccc(Cl)cc1 [Example 1265, (R)-4-Chloro-N-(5-chloro-2-fluorophenyl)-N-[6-[N-(S)-[1-(methoxycarbonyl)-3-methylbutyl]amino]-1-methyl-5-oxopentyl]benzenesulfonamide] | 50 to 100 nM
17 | C[C@H](CCN1CCCC(S(C)(=O)=O)C1)N(c1cc(Cl)ccc1Cl)S(=O)(=O)c1ccc(Cl)cc1 (stereo partly drawn) [Example 1118, 4-chloro-N-(2,5-dichlorophenyl)-N-[3-[(3-methylsulfonyl)-1-piperidinyl]-1(R)-methylpropyl]benzenesulfonamide] | 25 to 50 nM
18 | CCSCCC[C@@H](C)N(c1cc(Cl)ccc1CO)S(=O)(=O)c1ccc(Cl)cc1 [Example 1227, 4-chloro-N-[5-chloro-2-(hydroxymethyl)phenyl]-N-[1(R)-methyl-(4-ethylthio)butyl]benzenesulfonamide] | ≤ 25 nM
19 | CCSCCC[C@@H](C)N(c1cc(F)ccc1F)S(=O)(=O)c1ccc(Cl)cc1 [Example 1177, 4-chloro-N-[2,5-difluorophenyl]-N-[1(R)-methyl-(4-ethylthio)butyl]benzenesulfonamide] | ≤ 25 nM
20 | CSC1CCN(CCC[C@@H](C)N(c2cc(Cl)ccc2Cl)S(=O)(=O)c2ccc(Cl)cc2)C1 (stereo partly drawn) [Example 1134, 4-chloro-N-(2,5-dichlorophenyl)-N-[4-[(3-methylthio)-1-pyrrolidinyl]-1(R)-methylbutyl]benzenesulfonamide] | 100 to 500 nM
21 | (R)-4-Chloro-N-(2,5-difluorophenyl)-N-[1-[4-fluoro-2-[1-(2-methyl-4-thiomorpholinyl)butanoyl]phenyl]ethyl]benzenesulfonamide [Example 1276] | ≤ 25 nM
22 | C[C@H](CCC[S+]([O-])C(C)(C)C)N(c1cc(Cl)ccc1CO)S(=O)(=O)c1ccc(Cl)cc1 (some centres unmarked) [Example 1221] | ≤ 25 nM
23 | COC(=O)[C@H](CC(C)C)NC(=O)CCCC[C@@H](C)N(c1cc(Cl)ccc1F)S(=O)(=O)c1ccc(Cl)cc1 [Example 1258, (R)-4-Chloro-N-(5-chloro-2-fluorophenyl)-N-[6-[N-(S)-[1-(methoxycarbonyl)-3-methylbutyl]amino]-1-methyl-6-oxohexyl]benzenesulfonamide] | ≤ 25 nM

Same assay, conditions: transfected H4 cells stably expressing APP; approx. 16 h incubation; amyloid β in medium by ELISA; read-out: ACTIVITY (IC50, inhibition of amyloid β production)

Row | IC50 | Compound
24 | 100 to 500 nM | N-{3-[2-(1-{[(4-chlorophenyl)sulfonyl]-2,5-difluoroanilino}methyl)phenoxy]propyl}-N-methyl-2-phenylcyclopropanecarboxamide [Example 759]

Same assay, conditions: transfected H4 cells stably expressing APP; approximately 16 hours incubation; amyloid β in medium by ELISA; Table B; read-out: ACTIVITY (IC50, inhibition of amyloid β production)

Row | Compound | IC50
25 | (2E)-N-{4-[2-(1-{[(4-chlorophenyl)sulfonyl]-2,5-difluoroanilino}ethyl)phenoxy]butyl}-N-methyl-2-butenamide [Example 495] | 100 to 500 nM
26 | CC1(O)CCN(CCCOc2ccccc2CN(c2ccccc2)S(=O)(=O)c2ccc(Cl)cc2)CC1 [Example 312, 4-Chloro-N-{2-[3-(4-hydroxy-4-methyl-1-piperidinyl)propoxy]benzyl}-N-phenylbenzenesulfonamide Hydrochloride] | 50 to 100 nM
27 | O=S(=O)(c1ccc(Cl)cc1)N(Cc1ccccc1OCCCN1CCCC(O)C1)c1ccccc1 (centres unmarked) [Example 310, 4-Chloro-N-{2-[3-(3-hydroxy-1-piperidinyl)propoxy]benzyl}-N-phenylbenzenesulfonamide Hydrochloride] | 50 to 100 nM
28 | 3-[2-((1R)-1-{[(4-chlorophenyl)sulfonyl]-2,5-difluoroanilino}ethyl)phenyl]-N-(2,5-difluorobenzyl)propanamide [Example 383] | 50 to 100 nM

Same assay, conditions: transfected H4 cells stably expressing APP; approximately 16 hours incubation; amyloid β in medium by ELISA; read-out: ACTIVITY (IC50, inhibition of amyloid β production)

Row | IC50 | Compound
29 | > 500 nM | O=S(=O)(c1ccc(Cl)cc1)N(CCc1cccc(OCCCN2CCCCC2)c1)c1ccccc1 [Example 956, 4-chloro-N-phenyl-N-(2-{3-[3-(1-piperidinyl)propoxy]phenyl}ethyl)benzeneslfonamide hydrochloride]
30 | > 500 nM | (2R)-2-{[(4-chlorophenyl)sulfonyl]-2,5-difluoroanilino}propanoic acid [Example 1013]
31 | > 500 nM | N-{3-[2-(1-{[(4-chlorophenyl)sulfonyl]-2,5-difluoroanilino}ethyl)phenoxy]ethyl}-N-methyl-3,5-bis(trifluoromethyl)benzamide [Example 931]
32 | > 500 nM | S-{3-[2-({[(4-chlorophenyl)sulfonyl]-2,5-difluoroanilino}methyl)phenoxy]propyl} ethanethioate [Example 1014]
33 | 100 to 500 nM | 3-bromo-N-{3-[2-(1-{[(4-chlorophenyl)sulfonyl]-2,5-difluoroanilino}ethyl)phenoxy]propyl}-N-methylbenzenesulfonamide [Example 806]
34 | 100 to 500 nM | N-{2-[2-(1-{[(4-chlorophenyl)sulfonyl]-2,5-difluoroanilino}ethyl)phenoxy]ethyl}-2-cyclohexyl-N-methylacetamide [Example 844]

Row | Compound | IC50
35 | CC(c1ccccc1OCCCn1ccnc1)N(c1cc(F)ccc1F)S(=O)(=O)c1ccc(Cl)cc1 (centres unmarked) [Example 1047, 4-chloro-N-(2,5-difluorophenyl)-N-(1-{2-[3-(1H-imidazol-1-yl)propoxy]phenyl}ethyl)benzenesulfonamide] | > 500 nM
